# Data reported in PMC7778606, “Development of the phenylpyrazolo[3,4-d]pyrimidine-based, insulin-like growth factor receptor/Src/AXL-targeting small molecule kinase inhibitor” (Theranostics, 2021).
# Experiments:
# Test in all cases: KINOMEscan competition binding assay
# ALK = target: T1, ALK (Homo sapiens, UniProt Q9UM73); conditions: LL6 at 10 μM; read-out: Percent Control
# T1 construct: purchased DiscoverX KINOMEscan
# Procedure: (§1) Kd values were obtained by KINOMEscan from DiscoverX (San Diego, CA, USA). To briefly summarize, Kd was measured by a competition binding assay that quantitatively measures the ability of a compound to compete with an immobilized ligand. […] Dose response curves of 11 points are obtained for Kd values, which are measured in duplicate. See more details in the cited references [39]-[42] and see also at www.discoverx.com.
# BRAF(V600E) = target: T2, BRAF(V600E) (Homo sapiens, UniProt P15056, V600E); conditions: LL6 at 10 μM; read-out: Percent Control
# T2 construct: purchased DiscoverX KINOMEscan
# Procedure: as §1
# BTK = target: T3, BTK (Homo sapiens, UniProt Q06187); conditions: LL6 at 10 μM; read-out: Percent Control
# T3 construct: purchased DiscoverX KINOMEscan
# Procedure: as §1
# CDK3 = target: T4, CDK3 (Homo sapiens, UniProt Q00526); conditions: LL6 at 10 μM; read-out: Percent Control
# T4 construct: purchased DiscoverX KINOMEscan
# Procedure: as §1
# CDK7 = target: T5, CDK7 (Homo sapiens, UniProt P50613); conditions: LL6 at 10 μM; read-out: Percent Control
# T5 construct: purchased DiscoverX KINOMEscan
# Procedure: as §1
# CSF1R = target: T6, CSF1R (Homo sapiens, UniProt P07333)
# T6 construct: purchased DiscoverX (KINOMEscan service)
# T6 sequence (P07333 20-972): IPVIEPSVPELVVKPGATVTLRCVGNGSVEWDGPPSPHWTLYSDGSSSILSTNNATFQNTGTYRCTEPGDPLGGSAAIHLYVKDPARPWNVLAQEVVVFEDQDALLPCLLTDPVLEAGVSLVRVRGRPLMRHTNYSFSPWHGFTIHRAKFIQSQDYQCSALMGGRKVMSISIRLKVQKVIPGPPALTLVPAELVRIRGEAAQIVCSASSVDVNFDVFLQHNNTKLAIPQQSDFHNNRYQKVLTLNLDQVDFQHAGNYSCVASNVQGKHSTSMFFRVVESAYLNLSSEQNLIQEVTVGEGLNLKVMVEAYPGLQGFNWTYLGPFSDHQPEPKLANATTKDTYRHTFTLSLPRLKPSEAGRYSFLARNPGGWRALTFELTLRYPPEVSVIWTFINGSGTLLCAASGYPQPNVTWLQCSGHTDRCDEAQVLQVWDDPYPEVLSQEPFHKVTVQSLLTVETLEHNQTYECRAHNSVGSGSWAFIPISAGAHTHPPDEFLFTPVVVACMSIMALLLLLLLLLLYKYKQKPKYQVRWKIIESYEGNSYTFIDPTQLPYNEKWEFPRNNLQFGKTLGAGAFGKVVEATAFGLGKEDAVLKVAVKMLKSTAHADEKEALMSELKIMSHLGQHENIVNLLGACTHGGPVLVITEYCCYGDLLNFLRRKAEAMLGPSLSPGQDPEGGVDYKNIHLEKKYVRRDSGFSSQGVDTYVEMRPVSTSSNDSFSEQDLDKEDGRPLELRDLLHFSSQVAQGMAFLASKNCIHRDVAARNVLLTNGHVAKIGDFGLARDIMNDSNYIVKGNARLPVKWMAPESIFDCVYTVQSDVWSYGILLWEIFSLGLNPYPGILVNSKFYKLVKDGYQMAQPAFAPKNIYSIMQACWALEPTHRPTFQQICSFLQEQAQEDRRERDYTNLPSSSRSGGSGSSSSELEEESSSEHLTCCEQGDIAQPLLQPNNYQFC
# Procedure: as §1
# CSNK1D = target: T7, CSNK1D (Homo sapiens, UniProt P48730); conditions: LL6 at 10 μM; read-out: Percent Control
# T7 construct: purchased DiscoverX KINOMEscan
# Procedure: as §1
# DCAMKL1 = target: T8, DCAMKL1 (Homo sapiens, UniProt O15075); conditions: LL6 at 10 μM; read-out: Percent Control
# T8 construct: purchased DiscoverX KINOMEscan
# Procedure: as §1
# EGFR = target: T9, EGFR (Homo sapiens, UniProt P00533); conditions: LL6 at 10 μM; read-out: Percent Control
# T9 construct: purchased DiscoverX KINOMEscan
# Procedure: as §1
# ERBB2 = target: T10, ERBB2 (Homo sapiens, UniProt P04626); conditions: LL6 at 10 μM; read-out: Percent Control
# T10 construct: purchased DiscoverX KINOMEscan
# T10 sequence (P04626 23-1255): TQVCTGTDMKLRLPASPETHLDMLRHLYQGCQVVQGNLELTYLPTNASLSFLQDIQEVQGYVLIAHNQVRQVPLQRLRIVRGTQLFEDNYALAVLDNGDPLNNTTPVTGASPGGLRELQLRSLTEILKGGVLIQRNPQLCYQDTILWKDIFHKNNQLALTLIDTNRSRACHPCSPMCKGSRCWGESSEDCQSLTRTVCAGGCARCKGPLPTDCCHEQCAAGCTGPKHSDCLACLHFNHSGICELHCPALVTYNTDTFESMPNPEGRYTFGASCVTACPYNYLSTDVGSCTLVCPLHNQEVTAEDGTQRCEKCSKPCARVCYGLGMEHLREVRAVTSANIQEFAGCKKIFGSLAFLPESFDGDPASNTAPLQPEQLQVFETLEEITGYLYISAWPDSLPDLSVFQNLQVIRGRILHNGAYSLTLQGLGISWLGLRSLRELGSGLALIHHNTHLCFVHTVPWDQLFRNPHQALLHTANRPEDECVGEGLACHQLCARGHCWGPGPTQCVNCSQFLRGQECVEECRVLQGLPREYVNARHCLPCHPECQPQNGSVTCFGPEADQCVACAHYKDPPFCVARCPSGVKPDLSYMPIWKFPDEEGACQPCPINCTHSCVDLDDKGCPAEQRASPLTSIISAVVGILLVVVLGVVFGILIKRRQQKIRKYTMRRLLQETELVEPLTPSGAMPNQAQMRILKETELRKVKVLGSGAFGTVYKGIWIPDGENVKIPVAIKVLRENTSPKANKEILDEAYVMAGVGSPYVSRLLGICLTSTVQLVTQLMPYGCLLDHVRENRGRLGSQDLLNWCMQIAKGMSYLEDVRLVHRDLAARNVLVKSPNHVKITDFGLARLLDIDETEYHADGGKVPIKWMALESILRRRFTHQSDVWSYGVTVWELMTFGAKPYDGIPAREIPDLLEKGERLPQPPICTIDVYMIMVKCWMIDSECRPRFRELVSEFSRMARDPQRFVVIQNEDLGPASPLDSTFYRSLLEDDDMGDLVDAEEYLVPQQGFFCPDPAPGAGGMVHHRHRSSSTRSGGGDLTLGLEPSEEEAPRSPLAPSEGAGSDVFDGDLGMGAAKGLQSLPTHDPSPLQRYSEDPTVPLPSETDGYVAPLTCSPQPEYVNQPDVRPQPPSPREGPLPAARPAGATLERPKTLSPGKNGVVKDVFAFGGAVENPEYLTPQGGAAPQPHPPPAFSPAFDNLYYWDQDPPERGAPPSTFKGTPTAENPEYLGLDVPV
# Procedure: as §1
# ERBB4 = target: T11, ERBB4 (Homo sapiens, UniProt Q15303); conditions: LL6 at 10 μM; read-out: Percent Control
# T11 construct: purchased DiscoverX KINOMEscan
# Procedure: as §1
# FGFR3 = target: T12, FGFR3 (Homo sapiens, UniProt P22607); conditions: LL6 at 10 μM; read-out: Percent Control
# T12 construct: purchased DiscoverX KINOMEscan
# T12 sequence (P22607 23-806): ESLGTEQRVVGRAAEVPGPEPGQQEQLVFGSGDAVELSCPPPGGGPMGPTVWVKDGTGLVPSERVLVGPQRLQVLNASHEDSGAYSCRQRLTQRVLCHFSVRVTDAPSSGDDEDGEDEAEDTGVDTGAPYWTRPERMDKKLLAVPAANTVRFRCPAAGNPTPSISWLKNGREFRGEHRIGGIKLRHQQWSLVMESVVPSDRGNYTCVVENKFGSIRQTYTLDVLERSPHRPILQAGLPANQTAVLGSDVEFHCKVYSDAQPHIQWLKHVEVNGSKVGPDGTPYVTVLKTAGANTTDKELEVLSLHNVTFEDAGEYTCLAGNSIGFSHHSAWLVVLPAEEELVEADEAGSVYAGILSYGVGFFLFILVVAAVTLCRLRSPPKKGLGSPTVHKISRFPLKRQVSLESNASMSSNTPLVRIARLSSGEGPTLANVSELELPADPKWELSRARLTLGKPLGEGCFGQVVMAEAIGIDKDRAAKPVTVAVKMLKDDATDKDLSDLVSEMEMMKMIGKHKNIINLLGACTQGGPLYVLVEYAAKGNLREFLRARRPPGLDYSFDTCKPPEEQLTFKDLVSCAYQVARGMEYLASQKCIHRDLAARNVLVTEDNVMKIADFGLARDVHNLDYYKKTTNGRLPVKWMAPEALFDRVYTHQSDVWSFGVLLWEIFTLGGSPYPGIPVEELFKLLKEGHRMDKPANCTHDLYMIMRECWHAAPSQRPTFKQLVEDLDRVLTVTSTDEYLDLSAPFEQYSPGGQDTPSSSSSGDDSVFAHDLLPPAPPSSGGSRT
# Procedure: as §1
# IKK-alpha = target: T13, IKK-alpha (Homo sapiens, UniProt O15111); conditions: LL6 at 10 μM; read-out: Percent Control
# T13 construct: purchased DiscoverX KINOMEscan
# Procedure: as §1
# [1] = target: T14, JAK2(JH1domain-catalytic) (Homo sapiens, UniProt O60674); conditions: LL6 at 10 μM; read-out: Percent Control
# T14 construct: JAK2(JH1domain-catalytic); purchased DiscoverX KINOMEscan
# Procedure: as §1
# [2] = target: T15, JAK3(JH1domain-catalytic) (Homo sapiens, UniProt P52333); conditions: LL6 at 10 μM; read-out: Percent Control
# T15 construct: JAK3(JH1domain-catalytic); purchased DiscoverX KINOMEscan
# Procedure: as §1
# JNK1 = target: T16, JNK1 (Homo sapiens, UniProt P45983); conditions: LL6 at 10 μM; read-out: Percent Control
# T16 construct: purchased DiscoverX KINOMEscan
# T16 sequence (P45983 whole entry): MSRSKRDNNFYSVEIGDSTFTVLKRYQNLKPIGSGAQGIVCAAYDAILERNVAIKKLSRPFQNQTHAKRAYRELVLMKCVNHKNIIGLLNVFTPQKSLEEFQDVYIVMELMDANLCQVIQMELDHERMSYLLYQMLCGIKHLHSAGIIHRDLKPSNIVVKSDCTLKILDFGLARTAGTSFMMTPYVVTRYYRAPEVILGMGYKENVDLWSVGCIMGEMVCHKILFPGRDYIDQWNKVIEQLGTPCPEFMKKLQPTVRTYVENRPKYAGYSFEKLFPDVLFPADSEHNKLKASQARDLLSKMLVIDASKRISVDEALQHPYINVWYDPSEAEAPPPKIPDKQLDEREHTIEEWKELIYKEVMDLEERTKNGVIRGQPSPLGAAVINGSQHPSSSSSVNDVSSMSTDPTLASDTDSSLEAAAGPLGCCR
# Procedure: as §1
# JNK2 = target: T17, JNK2 (Homo sapiens, UniProt P45984); conditions: LL6 at 10 μM; read-out: Percent Control
# T17 construct: purchased DiscoverX KINOMEscan
# Procedure: as §1
# KIT = target: T18, KIT (Homo sapiens, UniProt P10721)
# T18 construct: purchased DiscoverX (KINOMEscan service)
# T18 sequence (P10721 26-976): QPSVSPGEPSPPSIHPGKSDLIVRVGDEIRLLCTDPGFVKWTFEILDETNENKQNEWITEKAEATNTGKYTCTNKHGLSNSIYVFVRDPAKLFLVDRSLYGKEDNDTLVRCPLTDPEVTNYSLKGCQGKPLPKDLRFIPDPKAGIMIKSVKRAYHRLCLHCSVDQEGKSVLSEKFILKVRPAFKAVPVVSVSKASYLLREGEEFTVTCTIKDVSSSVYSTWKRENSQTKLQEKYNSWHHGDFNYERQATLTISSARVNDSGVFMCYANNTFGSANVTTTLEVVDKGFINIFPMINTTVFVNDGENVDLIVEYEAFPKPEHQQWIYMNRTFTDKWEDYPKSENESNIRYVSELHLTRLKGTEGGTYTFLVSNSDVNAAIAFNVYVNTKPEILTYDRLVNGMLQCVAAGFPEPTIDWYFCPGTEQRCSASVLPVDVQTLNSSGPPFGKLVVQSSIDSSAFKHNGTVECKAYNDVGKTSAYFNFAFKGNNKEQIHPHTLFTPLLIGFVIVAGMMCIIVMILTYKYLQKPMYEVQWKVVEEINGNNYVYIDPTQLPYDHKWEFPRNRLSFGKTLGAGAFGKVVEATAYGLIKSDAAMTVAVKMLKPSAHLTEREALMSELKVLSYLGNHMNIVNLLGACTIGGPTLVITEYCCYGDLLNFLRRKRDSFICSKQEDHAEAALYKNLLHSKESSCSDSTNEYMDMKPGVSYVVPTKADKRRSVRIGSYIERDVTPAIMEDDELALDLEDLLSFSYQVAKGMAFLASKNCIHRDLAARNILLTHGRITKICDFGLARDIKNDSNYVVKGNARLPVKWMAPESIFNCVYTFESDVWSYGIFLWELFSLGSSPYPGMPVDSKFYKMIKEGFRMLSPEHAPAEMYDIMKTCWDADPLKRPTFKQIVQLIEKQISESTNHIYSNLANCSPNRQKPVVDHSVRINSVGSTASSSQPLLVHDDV
# Procedure: as §1
# KIT(D816V) = target: T19, KIT(D816V) (Homo sapiens, UniProt P10721, D816V); conditions: LL6 at 10 μM; read-out: Percent Control
# T19 construct: purchased DiscoverX KINOMEscan
# T19 sequence (P10721 26-976 D816V): as the sequence (P10721 26-976) above, with D791V counted along it
# Procedure: as §1
# KIT(V559D,T670I) = target: T20, KIT(V559D,T670I) (Homo sapiens, UniProt P10721, T670I/V559D); conditions: LL6 at 10 μM; read-out: Percent Control
# T20 construct: purchased DiscoverX KINOMEscan
# T20 sequence (P10721 26-976 V559D/T670I): as the sequence (P10721 26-976) above, with V534D, T645I counted along it
# Procedure: as §1
# MAPKAPK2 = target: T21, MAPKAPK2 (Homo sapiens, UniProt P49137); conditions: LL6 at 10 μM; read-out: Percent Control
# T21 construct: purchased DiscoverX KINOMEscan
# Procedure: as §1
# MKNK1 = target: T22, MKNK1 (Homo sapiens, UniProt Q9BUB5); conditions: LL6 at 10 μM; read-out: Percent Control
# T22 construct: purchased DiscoverX KINOMEscan
# Procedure: as §1
# PIK3CG = target: T23, PIK3CG (Homo sapiens, UniProt P48736); conditions: LL6 at 10 μM; read-out: Percent Control
# T23 construct: purchased DiscoverX KINOMEscan
# Procedure: as §1
# PIM2 = target: T24, PIM2 (Homo sapiens, UniProt Q9P1W9); conditions: LL6 at 10 μM; read-out: Percent Control
# T24 construct: purchased DiscoverX KINOMEscan
# Procedure: as §1
# PKAC-alpha = target: T25, PKAC-alpha (Homo sapiens, UniProt P17612); conditions: LL6 at 10 μM; read-out: Percent Control
# T25 construct: purchased DiscoverX KINOMEscan
# Procedure: as §1
# PLK1 = target: T26, PLK1 (Homo sapiens, UniProt P53350); conditions: LL6 at 10 μM; read-out: Percent Control
# T26 construct: purchased DiscoverX KINOMEscan
# Procedure: as §1
# PLK3 = target: T27, PLK3 (Homo sapiens, UniProt Q9H4B4); conditions: LL6 at 10 μM; read-out: Percent Control
# T27 construct: purchased DiscoverX KINOMEscan
# Procedure: as §1
# PRKCE = target: T28, PRKCE (Homo sapiens, UniProt Q02156); conditions: LL6 at 10 μM; read-out: Percent Control
# T28 construct: purchased DiscoverX KINOMEscan
# Procedure: as §1
# RAF1 = target: T29, RAF1 (Homo sapiens, UniProt P04049); conditions: LL6 at 10 μM; read-out: Percent Control
# T29 construct: purchased DiscoverX KINOMEscan
# Procedure: as §1
# RET = target: T30, RET (Homo sapiens, UniProt P07949); conditions: LL6 at 10 μM; read-out: Percent Control
# T30 construct: purchased DiscoverX KINOMEscan
# Procedure: as §1
# [3] = target: T31, RSK2(Kin.Dom.1-N-terminal) (Homo sapiens, UniProt P51812); conditions: LL6 at 10 μM; read-out: Percent Control
# T31 construct: RSK2(Kin.Dom.1-N-terminal); purchased DiscoverX KINOMEscan
# Procedure: as §1
# SNARK = target: T32, SNARK (Homo sapiens, UniProt Q9H093); conditions: LL6 at 10 μM; read-out: Percent Control
# T32 construct: purchased DiscoverX KINOMEscan
# Procedure: as §1
# SRPK3 = target: T33, SRPK3 (Homo sapiens, UniProt Q9UPE1); conditions: LL6 at 10 μM; read-out: Percent Control
# T33 construct: purchased DiscoverX KINOMEscan
# Procedure: as §1
# TRKA = target: T34, TRKA (Homo sapiens, UniProt P04629); conditions: LL6 at 10 μM; read-out: Percent Control
# T34 construct: purchased DiscoverX KINOMEscan
# Procedure: as §1
# TSSK1B = target: T35, TSSK1B (Homo sapiens, UniProt Q9BXA7); conditions: LL6 at 10 μM; read-out: Percent Control
# T35 construct: purchased DiscoverX KINOMEscan
# Procedure: as §1
# VEGFR2 = target: T36, VEGFR2 (Homo sapiens, UniProt P35968); conditions: LL6 at 10 μM; read-out: Percent Control
# T36 construct: purchased DiscoverX KINOMEscan
# Procedure: as §1
# YANK3 = target: T37, YANK3 (Homo sapiens, UniProt Q86UX6); conditions: LL6 at 10 μM; read-out: Percent Control
# T37 construct: purchased DiscoverX KINOMEscan
# T37 sequence (Q86UX6 whole entry): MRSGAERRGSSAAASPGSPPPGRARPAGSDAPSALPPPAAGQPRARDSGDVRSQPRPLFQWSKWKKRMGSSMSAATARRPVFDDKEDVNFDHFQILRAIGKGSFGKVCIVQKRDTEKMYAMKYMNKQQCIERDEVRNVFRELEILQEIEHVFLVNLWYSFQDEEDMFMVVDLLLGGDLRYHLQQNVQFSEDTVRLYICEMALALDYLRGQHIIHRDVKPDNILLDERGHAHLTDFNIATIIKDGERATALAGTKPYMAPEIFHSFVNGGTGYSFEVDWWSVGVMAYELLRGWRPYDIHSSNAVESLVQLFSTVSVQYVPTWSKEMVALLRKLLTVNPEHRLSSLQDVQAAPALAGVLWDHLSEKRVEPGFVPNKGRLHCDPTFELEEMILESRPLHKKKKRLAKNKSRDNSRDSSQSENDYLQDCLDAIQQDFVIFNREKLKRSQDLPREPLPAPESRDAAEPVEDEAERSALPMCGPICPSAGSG
# Procedure: as §1
# p38-alpha = target: T38, p38-alpha (Homo sapiens, UniProt Q16539); conditions: LL6 at 10 μM; read-out: Percent Control
# T38 construct: purchased DiscoverX KINOMEscan
# Procedure: as §1
# [4] = LL6 at 10 μM, read-out: Percent Control
smiles,measurement,setting,value
Nc1ncnc2c1c(-c1ccc(Cl)cc1)nn2CCn1cc(COc2ccc(Nc3nccc(Nc4cnc5ccccc5c4)n3)cc2)nn1 [LL6],remaining binding at 10 µM,ALK,100%
same,remaining binding at 10 µM,BRAF(V600E),22%
same,remaining binding at 10 µM,BTK,100%
same,remaining binding at 10 µM,CDK3,97%
same,remaining binding at 10 µM,CDK7,56%
same,Kd,"CSF1R; CSF1R, 11-point dose response, duplicate",did not show dose-dependent inhibition curves
same,inhibition at 10 µM,"CSF1R; CSF1R, LL6 at 10 µM",> 65%
same,remaining binding at 10 µM,CSF1R; [4],29%
same,remaining binding at 10 µM,CSNK1D,14%
same,remaining binding at 10 µM,DCAMKL1,100%
same,remaining binding at 10 µM,EGFR,82%
same,remaining binding at 10 µM,ERBB2,100%
same,remaining binding at 10 µM,ERBB4,40%
same,remaining binding at 10 µM,FGFR3,89%
same,remaining binding at 10 µM,IKK-alpha,100%
same,remaining binding at 10 µM,[1],100%
same,remaining binding at 10 µM,[2],100%
same,remaining binding at 10 µM,JNK1,100%
same,remaining binding at 10 µM,JNK2,67%
same,Kd,"KIT; KIT, 11-point dose response, duplicate",did not show dose-dependent inhibition curves
same,inhibition at 10 µM,"KIT; KIT, LL6 at 10 µM",> 65%
same,remaining binding at 10 µM,KIT; [4],1.8%
same,remaining binding at 10 µM,KIT(D816V),66%
same,remaining binding at 10 µM,"KIT(V559D,T670I)",80%
same,remaining binding at 10 µM,MAPKAPK2,100%
same,remaining binding at 10 µM,MKNK1,100%
same,remaining binding at 10 µM,PIK3CG,63%
same,remaining binding at 10 µM,PIM2,100%
same,remaining binding at 10 µM,PKAC-alpha,36%
same,remaining binding at 10 µM,PLK1,100%
same,remaining binding at 10 µM,PLK3,90%
same,remaining binding at 10 µM,PRKCE,100%
same,remaining binding at 10 µM,RAF1,82%
same,remaining binding at 10 µM,RET,81%
same,remaining binding at 10 µM,[3],25%
same,remaining binding at 10 µM,SNARK,100%
same,remaining binding at 10 µM,SRPK3,84%
same,remaining binding at 10 µM,TRKA,100%
same,remaining binding at 10 µM,TSSK1B,100%
same,remaining binding at 10 µM,VEGFR2,65%
same,remaining binding at 10 µM,YANK3,100%
same,remaining binding at 10 µM,p38-alpha,100%
